According to ChEMBL document CHEMBL2384907, “Identification of substituted pyrimido[5,4-b]indoles as selective Toll-like receptor 4 ligands” (J Med Chem, 2013):
Active and inactive are the calls of the source. The rule behind the calls is not given here.

Legend:
[1] = biological target: T1, Toll-like receptor 9 (Homo sapiens) (UniProt Q9NR96); assay: Activation of human TLR9 transfected in HEK293 cells at 10 uM after 20 to 24 hrs by SEAP assay; format: cell-based
T1 sequence (whole entry): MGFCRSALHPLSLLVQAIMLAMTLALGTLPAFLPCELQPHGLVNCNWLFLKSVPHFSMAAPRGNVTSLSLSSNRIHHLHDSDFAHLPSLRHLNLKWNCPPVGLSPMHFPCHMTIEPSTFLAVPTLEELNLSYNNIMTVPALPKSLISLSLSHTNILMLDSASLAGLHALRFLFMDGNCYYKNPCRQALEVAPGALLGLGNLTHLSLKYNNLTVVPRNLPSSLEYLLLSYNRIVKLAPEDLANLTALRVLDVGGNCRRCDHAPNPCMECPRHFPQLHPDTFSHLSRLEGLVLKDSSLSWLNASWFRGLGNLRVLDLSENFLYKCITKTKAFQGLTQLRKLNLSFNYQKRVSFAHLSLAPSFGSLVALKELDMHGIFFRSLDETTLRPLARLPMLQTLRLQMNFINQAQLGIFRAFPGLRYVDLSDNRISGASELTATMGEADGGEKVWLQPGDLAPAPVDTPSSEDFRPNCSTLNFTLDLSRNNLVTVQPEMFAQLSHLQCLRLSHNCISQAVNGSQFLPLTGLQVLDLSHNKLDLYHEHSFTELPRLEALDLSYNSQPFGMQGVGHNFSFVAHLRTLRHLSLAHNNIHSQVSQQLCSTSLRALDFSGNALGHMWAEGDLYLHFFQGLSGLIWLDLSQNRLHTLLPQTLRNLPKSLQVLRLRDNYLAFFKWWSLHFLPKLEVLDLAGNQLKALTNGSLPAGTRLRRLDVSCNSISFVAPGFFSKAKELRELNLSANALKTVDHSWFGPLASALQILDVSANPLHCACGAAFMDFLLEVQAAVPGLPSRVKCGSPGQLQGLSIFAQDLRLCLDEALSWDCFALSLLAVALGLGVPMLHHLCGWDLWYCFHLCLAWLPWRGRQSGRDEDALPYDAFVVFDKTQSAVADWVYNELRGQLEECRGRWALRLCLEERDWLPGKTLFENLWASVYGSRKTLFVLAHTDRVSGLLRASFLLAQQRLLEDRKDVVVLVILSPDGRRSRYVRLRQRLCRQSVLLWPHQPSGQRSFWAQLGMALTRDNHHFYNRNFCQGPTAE

[2] = biological target: T2, Toll-like receptor 8 (Homo sapiens) (UniProt Q9NR97); assay: Activation of human TLR8 transfected in HEK293 cells at 10 uM after 20 to 24 hrs by SEAP assay; format: cell-based
T2 sequence (whole entry): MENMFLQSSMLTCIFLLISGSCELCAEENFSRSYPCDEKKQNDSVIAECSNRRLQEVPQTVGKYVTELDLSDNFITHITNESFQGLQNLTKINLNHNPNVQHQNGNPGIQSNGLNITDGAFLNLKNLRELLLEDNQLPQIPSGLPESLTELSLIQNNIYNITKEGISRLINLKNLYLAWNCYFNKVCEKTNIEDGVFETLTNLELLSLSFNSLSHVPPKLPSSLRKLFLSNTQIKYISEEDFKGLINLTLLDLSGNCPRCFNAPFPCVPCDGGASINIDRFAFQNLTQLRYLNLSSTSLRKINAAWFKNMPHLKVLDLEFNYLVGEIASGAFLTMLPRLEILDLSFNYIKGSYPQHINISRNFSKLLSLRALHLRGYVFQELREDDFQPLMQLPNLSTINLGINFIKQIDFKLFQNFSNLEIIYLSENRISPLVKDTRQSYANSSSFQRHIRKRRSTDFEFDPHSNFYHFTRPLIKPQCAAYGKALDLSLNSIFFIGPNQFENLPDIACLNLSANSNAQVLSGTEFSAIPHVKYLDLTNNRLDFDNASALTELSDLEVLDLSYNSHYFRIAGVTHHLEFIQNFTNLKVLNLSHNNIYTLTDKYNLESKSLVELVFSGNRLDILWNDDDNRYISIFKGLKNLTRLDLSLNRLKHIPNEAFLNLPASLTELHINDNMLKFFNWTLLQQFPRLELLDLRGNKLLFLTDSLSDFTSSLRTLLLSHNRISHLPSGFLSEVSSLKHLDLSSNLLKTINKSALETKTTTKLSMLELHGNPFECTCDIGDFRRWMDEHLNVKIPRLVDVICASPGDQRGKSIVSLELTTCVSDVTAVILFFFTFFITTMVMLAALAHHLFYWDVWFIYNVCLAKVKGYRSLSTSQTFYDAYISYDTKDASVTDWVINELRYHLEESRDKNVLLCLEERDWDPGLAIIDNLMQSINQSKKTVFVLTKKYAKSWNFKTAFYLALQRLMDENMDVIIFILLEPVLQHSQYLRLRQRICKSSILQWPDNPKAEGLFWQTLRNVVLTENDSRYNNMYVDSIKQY

Activity [1]: inactive
Activity [2]: inactive
SMILES: O=C(CSc1nc2c([nH]c3ccccc32)c(=O)n1-c1ccccc1)NC1CCCCC1
